A value given as a limit tells only on which side of the number the result lay.

The target of assay [1] is T1, hGSK3b (Homo sapiens, UniProt P49841).
T1 construct: purchased Cerep (LANCE kinase assay platform, contract assay)
Briefly: Cerep LANCE kinase assay hGSK3b (S1 assay 34). Format: biochemical. A general note: TR-FRET usually uses a lanthanide donor and a delayed reading to cut background.

For assay [2], the system named is alkaline phosphatase (ALP) activity in C2C12 cells. The format is cell-based. To be noted: concentration response; for WntCondMedia_Alk Phos C2C12 IC50/EC50: assay number 6.
Assay [3] has as its target T2, hp70S6K1 (RPS6KB1) (Homo sapiens, UniProt P23443).
T2 construct: purchased Cerep (LANCE kinase assay platform, contract assay)
Briefly: Cerep LANCE kinase assay hp70S6K1 (S1 assay 31). The format is biochemical.

For assay [4], the target named is T3, hJAK2 (Homo sapiens, UniProt O60674).
T3 construct: purchased Cerep (LANCE kinase assay platform, contract assay)
T3 sequence (O60674 whole entry): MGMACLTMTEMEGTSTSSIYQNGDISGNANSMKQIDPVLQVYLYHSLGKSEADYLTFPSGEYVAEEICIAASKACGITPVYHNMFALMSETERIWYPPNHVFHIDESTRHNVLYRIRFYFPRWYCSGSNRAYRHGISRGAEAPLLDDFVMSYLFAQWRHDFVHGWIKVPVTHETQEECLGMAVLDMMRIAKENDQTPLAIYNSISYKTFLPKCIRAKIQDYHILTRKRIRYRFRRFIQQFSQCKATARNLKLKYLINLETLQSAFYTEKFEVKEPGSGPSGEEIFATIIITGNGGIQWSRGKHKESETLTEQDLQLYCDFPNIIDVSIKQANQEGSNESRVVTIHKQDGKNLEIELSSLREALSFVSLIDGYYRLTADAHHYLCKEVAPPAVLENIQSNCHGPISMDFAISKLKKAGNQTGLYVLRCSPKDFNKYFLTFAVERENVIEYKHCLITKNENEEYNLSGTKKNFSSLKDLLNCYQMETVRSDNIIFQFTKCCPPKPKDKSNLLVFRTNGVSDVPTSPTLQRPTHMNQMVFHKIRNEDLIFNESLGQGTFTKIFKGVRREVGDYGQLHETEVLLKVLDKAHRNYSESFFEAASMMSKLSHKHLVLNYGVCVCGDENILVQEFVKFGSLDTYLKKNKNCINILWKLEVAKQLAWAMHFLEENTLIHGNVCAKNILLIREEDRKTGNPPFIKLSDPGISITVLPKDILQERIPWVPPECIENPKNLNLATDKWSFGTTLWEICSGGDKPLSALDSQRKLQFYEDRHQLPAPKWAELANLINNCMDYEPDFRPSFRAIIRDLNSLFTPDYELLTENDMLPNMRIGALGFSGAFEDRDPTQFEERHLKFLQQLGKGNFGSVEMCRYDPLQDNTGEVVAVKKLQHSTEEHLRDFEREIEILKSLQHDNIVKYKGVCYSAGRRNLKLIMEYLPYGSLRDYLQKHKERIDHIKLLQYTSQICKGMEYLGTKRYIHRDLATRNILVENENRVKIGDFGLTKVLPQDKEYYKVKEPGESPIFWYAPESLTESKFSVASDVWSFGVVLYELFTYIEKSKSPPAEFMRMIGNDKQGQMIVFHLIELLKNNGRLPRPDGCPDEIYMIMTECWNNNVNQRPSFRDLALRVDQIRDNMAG
Briefly: Cerep LANCE kinase assay hJAK2 (S1 assay 33). Format: biochemical.

The target of assay [5] is T4, hKDR (Homo sapiens, UniProt P35968).
T4 construct: purchased Cerep (LANCE kinase assay platform, contract assay)
T4 sequence (P35968 20-1356): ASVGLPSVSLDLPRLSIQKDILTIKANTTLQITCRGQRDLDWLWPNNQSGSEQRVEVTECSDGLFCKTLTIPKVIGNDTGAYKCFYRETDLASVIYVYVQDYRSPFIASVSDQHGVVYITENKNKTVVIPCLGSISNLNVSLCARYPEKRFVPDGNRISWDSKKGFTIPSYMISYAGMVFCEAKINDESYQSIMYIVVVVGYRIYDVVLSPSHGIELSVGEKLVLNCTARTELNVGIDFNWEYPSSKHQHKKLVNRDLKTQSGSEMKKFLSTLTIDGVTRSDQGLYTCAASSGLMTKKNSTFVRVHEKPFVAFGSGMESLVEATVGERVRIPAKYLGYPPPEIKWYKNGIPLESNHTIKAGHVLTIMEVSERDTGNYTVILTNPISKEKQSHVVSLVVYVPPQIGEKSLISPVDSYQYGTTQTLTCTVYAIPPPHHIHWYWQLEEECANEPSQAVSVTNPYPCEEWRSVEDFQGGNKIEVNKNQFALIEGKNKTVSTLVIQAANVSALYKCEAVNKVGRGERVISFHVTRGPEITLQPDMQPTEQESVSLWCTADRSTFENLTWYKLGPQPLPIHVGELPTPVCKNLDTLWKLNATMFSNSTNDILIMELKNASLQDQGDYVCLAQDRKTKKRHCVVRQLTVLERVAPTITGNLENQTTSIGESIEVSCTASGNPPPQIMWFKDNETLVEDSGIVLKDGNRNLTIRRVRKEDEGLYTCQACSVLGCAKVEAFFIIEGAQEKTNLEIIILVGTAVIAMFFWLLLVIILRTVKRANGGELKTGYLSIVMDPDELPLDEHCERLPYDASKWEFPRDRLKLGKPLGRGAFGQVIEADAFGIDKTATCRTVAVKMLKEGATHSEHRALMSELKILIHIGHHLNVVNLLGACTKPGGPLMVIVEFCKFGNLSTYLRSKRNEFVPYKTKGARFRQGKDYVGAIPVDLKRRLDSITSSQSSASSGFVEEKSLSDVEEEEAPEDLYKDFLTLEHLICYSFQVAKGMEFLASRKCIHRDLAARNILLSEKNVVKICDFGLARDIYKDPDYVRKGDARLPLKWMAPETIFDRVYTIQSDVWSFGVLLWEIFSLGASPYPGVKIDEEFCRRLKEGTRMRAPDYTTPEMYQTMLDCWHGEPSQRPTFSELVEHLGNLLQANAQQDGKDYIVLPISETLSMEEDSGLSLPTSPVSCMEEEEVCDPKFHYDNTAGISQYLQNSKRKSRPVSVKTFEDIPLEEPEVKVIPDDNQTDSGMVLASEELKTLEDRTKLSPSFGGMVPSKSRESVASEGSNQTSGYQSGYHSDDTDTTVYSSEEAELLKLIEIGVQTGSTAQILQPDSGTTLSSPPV
Briefly: Cerep LANCE kinase assay hKDR (S1 assay 32). Format: biochemical.

Assay [6] deals with T5, hFLT3 (Homo sapiens, UniProt P36888).
T5 construct: purchased Cerep (LANCE kinase assay platform, contract assay)
T5 sequence (P36888 27-993): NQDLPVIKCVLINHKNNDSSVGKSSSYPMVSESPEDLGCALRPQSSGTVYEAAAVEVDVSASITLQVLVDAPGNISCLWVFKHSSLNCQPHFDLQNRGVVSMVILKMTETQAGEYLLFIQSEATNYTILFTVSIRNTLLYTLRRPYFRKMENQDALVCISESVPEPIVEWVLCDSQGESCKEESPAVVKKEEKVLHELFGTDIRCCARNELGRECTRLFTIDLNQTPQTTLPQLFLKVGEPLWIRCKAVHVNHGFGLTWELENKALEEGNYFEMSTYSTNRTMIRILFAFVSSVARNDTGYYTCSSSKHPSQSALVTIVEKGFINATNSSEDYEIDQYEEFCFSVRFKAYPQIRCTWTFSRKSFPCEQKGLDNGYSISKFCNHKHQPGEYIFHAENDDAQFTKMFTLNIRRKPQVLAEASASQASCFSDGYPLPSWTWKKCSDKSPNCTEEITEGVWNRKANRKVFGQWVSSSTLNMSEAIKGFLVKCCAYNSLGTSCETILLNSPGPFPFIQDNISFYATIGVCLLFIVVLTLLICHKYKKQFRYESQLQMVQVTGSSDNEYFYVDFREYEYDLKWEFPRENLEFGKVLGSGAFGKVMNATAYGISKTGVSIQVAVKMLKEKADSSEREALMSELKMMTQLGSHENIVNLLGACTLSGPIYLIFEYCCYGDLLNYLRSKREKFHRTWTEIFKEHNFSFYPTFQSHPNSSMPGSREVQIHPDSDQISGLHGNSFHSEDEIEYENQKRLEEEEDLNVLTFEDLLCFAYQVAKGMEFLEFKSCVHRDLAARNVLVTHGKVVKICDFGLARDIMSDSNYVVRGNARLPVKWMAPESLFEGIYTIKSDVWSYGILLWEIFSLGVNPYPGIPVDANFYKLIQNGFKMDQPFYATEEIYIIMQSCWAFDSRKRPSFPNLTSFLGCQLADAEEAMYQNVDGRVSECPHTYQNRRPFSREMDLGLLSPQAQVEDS
Briefly: Cerep LANCE kinase assay hFLT3 (S1 assay 35). Format: biochemical.

Assay [7] has as its system HeLa cells. Briefly: cells. Format: cell-based. To be noted: for Hela CellCycMod PI 2N IC50/EC50: assay number 14; for Hela CellCycMod PI 4N IC50/EC50: assay number 16; for Hela CellCycMod PI MI IC50/EC50: assay number 17; for Hela CellCycMod PI Cell Number IC50/EC50: assay number 18.
The subject of assay [8] is nuclear β-catenin in C2C12 cells. Briefly: cells. Format: cell-based. As to conditions: concentration response; for WntCondMedia_bCatenin C2C12 IC50/EC50: assay number 5.
Assay [9] has as its system INS-1E cells. Briefly: cells. Format: cell-based, rat. As to conditions: 5 mM glucose.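 Note: secreted insulin quantified by homogeneous immunoassay.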
Assay [10] relates to ECFC/ADSC co-culture cell nuclei number.
The test system of assay [11] is endothelial tube formation in co-cultures of ECFCs and ADSCs treated with VEGF. Briefly: cells. The format is cell-based, human.

T2 sequence (P23443 whole entry): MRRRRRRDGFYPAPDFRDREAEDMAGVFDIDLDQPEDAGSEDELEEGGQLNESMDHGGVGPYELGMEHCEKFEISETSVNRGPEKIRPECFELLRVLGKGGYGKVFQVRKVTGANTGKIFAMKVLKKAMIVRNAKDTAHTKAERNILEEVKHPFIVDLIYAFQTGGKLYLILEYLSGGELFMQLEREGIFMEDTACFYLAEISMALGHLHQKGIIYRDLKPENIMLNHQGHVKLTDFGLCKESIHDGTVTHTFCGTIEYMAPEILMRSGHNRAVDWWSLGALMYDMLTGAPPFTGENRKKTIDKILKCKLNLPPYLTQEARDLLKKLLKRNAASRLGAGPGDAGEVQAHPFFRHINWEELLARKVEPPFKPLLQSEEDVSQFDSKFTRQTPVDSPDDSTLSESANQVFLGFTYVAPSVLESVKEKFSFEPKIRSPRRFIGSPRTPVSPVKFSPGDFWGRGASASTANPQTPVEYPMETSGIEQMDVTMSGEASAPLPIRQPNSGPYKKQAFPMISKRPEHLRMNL
T1 sequence (P49841 whole entry): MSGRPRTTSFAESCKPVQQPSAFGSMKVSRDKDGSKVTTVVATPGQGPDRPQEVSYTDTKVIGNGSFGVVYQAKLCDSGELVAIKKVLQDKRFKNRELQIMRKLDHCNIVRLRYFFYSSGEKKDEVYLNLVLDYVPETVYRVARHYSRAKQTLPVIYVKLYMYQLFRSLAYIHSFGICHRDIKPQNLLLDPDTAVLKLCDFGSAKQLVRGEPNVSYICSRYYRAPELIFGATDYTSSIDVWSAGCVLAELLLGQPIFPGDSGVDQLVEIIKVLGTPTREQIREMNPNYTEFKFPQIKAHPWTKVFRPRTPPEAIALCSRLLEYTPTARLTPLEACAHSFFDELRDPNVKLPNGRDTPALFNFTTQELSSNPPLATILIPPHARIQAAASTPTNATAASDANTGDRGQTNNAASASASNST

For the molecule `CCc1nc(N)nc(N)c1-c1ccc(Cl)cc1` [NCGC00016256-17], the “IC50/EC50, hGSK3b LANCE (assay number 34)” value in assay [1] is recorded as over 20 µM. Also, in assay [2], the “IC50/EC50, WntCondMedia_Alk Phos C2C12 (assay number 6)” value (“IC50/EC50, WntCondMedia_Alk Phos C2C12” for short) is 0.0677 µM. For the same molecule, the “IC50/EC50, hp70S6K1 LANCE (assay number 31)” value in assay [3] is recorded as over 20 µM. Besides, the “IC50/EC50, hJAK2 LANCE (assay number 33)” value in assay [4] is given as over 20 µM. Also, the “IC50/EC50, hKDR LANCE (assay number 32)” value in assay [5] was over 20 µM. The “IC50/EC50, hFLT3 LANCE (assay number 35)” value in [6] is on record as over 20 µM. In assay [7], the “IC50/EC50, Hela CellCycMod PI 2N (assay number 14)” value was over 10 µM; the “IC50/EC50, Hela CellCycMod PI 4N (assay number 16)” value was over 10 µM; the “IC50/EC50, Hela CellCycMod PI Cell Number (assay number 18)” value is over 10 µM; the “IC50/EC50, Hela CellCycMod PI MI (assay number 17)” value is on record as over 10 µM. In addition, the “IC50/EC50, Hela CellCycMod PI S Phase (assay number 15)” value in assay [7] is given as over 10 µM. In assay [8], the “IC50/EC50, WntCondMedia_bCatenin C2C12 (assay number 5)” value (“IC50/EC50, WntCondMedia_bCatenin C2C12” for short) is 0.86 µM.

Regarding `CN1C[C@H](CNC(=O)OCc2ccccc2)C[C@@H]2c3cccc4c3c(cn4C)C[C@H]21` [NCGC00017257-14], the “IC50/EC50, WntCondMedia_Alk Phos C2C12” value in assay [2] was over 20 µM. For the same molecule, the “IC50/EC50, 5mMGluc_INS1E SecretionMod (assay number 8)” value in [9] is given as over 33.33 µM. The “IC50/EC50, WntCondMedia_bCatenin C2C12” value in assay [8] is reported as over 20 µM.

Consider `CCCCCCCCCCOCC(O)CN` (centres unmarked) [NCGC00166070-02], for which the “WntCondMedia_Alk Phos C2C12 IC50/EC50” value in [2] is over 20 µM. Also, in [10], the “VEGF_ADSC\ECFC Angio Hoechst NucArea IC50/EC50” value was over 10 µM. Moreover, the “VEGF_ADSC\ECFC Angio CD31 TubeArea IC50/EC50” value in [11] worked out at 6.5465 µM. Besides, in assay [7], the “Hela CellCycMod PI 2N IC50/EC50” value is on record as over 10 µM, the “Hela CellCycMod PI 4N IC50/EC50” value is over 10 µM, the “Hela CellCycMod PI MI IC50/EC50” value was over 10 µM and the “Hela CellCycMod PI Cell Number IC50/EC50” value was over 10 µM. Also, in assay [7] (assay number 15, S phase), the “Hela CellCycMod PI S Phase IC50/EC50” value is recorded as over 10 µM. Moreover, the “WntCondMedia_bCatenin C2C12 IC50/EC50” value in assay [8] is given as over 20 µM.

With `C[n+]1c2cc(N)ccc2cc2ccc(N)cc21` [NCGC00178831-03], the “IC50/EC50, hGSK3b LANCE (assay number 34)” value in assay [1] is given as over 20 µM. Besides, the “IC50/EC50, WntCondMedia_Alk Phos C2C12” value in assay [2] was 1.5999 µM. The “IC50/EC50, hp70S6K1 LANCE (assay number 31)” value in [3] worked out at 6.57 µM. In assay [4], the “IC50/EC50, hJAK2 LANCE (assay number 33)” value is on record as over 20 µM. Moreover, in assay [5], the “IC50/EC50, hKDR LANCE (assay number 32)” value is over 20 µM. Also, the “IC50/EC50, hFLT3 LANCE (assay number 35)” value in assay [6] is over 20 µM. Also, in [7], the “IC50/EC50, Hela CellCycMod PI 2N (assay number 14)” value turned out to be 3.3946 µM; the “IC50/EC50, Hela CellCycMod PI 4N (assay number 16)” value is on record as over 10 µM; the “IC50/EC50, Hela CellCycMod PI Cell Number (assay number 18)” value is listed as 0.4722 µM; the “IC50/EC50, Hela CellCycMod PI MI (assay number 17)” value was found to be 2.194 µM. Besides, in assay [7], the “IC50/EC50, Hela CellCycMod PI S Phase (assay number 15)” value is 1.9618 µM. In addition, in [8], the “IC50/EC50, WntCondMedia_bCatenin C2C12” value is over 20 µM.

With `Cc1nc(Nc2ncc(C(=O)Nc3c(C)cccc3Cl)s2)cc(N2CCN(CCO)CC2)n1` [NCGC00181129-06], in assay [2], the “WntCondMedia_Alk Phos C2C12 IC50/EC50” value turned out to be 0.0067 µM. Moreover, the “VEGF_ADSC\ECFC Angio Hoechst NucArea IC50/EC50” value in assay [10] is on record as over 10 µM. Further, the “VEGF_ADSC\ECFC Angio CD31 TubeArea IC50/EC50” value in [11] was over 10 µM. Besides, in assay [7], the “Hela CellCycMod PI 2N IC50/EC50” value is over 10 µM, the “Hela CellCycMod PI 4N IC50/EC50” value is reported as over 10 µM, the “Hela CellCycMod PI MI IC50/EC50” value is recorded as over 10 µM and the “Hela CellCycMod PI Cell Number IC50/EC50” value was determined as 0.8748 µM. Moreover, the “WntCondMedia_bCatenin C2C12 IC50/EC50” value in assay [8] is reported as 0.1044 µM.

The values are drawn from article PMC4503722, “Novel Phenotypic Outcomes Identified for a Public Collection of Approved Drugs from a Publicly Accessible Panel of Assays” (PLoS ONE, 2015).
